{
  "source": "patent EP0670721B1",
  "about": "“DRUG FOR TREATMENT AND PROPHYLAXIS OF BONE AND JOINT DISEASES” (Fricker, Christian, priority 1993, dated 1995)",
  "assay": "Oral treatment of bone and joint diseases with raised internal pressure (own controlled trials)",
  "format": "in vivo, Menschen, Hund, Pferd",
  "conditions": "osteoarthrosis (human and veterinary), podotrochlosis of the horse",
  "text": "Erfindungsgemäß konnte festgestellt werden, daß bei degenerativen Gelenkserkrankungen in den Epiphysen bei am Gelenk beteiligten Knochen ein pathologisch erhöhter Innendruck vorliegt. Analog zur Pathophysiologie des Kompartmentsyndroms wird der intraossäre Druckanstieg durch eine Anreicherung von osmotisch aktiven Substanzen in Intestitium verursacht. In Anlehnung an die vorgestellte Pathophysiologie kann somit erstmals eine kausale Therapie für degenerative Gelenkserkrankungen bereitgestellt werden. Benzopyrone und Dobesilat-calcium vermögen durch Stabilisierung der Kapillarwände einerseits und durch Proteinresorption andererseits den Druck im erkrankten Kompartment abzubauen. Der Druckabbau ermöglicht in der Folge eine Normalisierung der Mikrozirkulation und somit eine Gesundung der betroffenen Gewebe. Wie eigene, kontrollierte Versuche zeigen, eignen sich Benzopyrone wie auch Dobesilat-Calcium zur kausalen Therapie dieser auf innerem Überdruck in Knochen und Gelenken beruhenden Erkrankungen. Dies trifft insbesondere in der Human- und Veterinärmedizin für den Problemkreis der Osteoarthrose und in der Veterinärmedizin für die Podotrochlose des Pferdes zu.\nDas 5,6-α-Benzopyron wurde in der Tagesdosis von: • 1 - 4 mg/kg KGW beim Menschen, • 2 - 4 mg/kg KGW beim Hund und • 0,5 - 1 mg/kg KGW beim Pferd peroral verabreicht. […]",
  "data": [
    {"molecule": "O=S(=O)(O)c1cc(O)ccc1O", "note": "[Dobesilat-Calcium]", "values": [
      {"measurement": "Eignung zur kausalen Therapie der auf innerem Überdruck in Knochen und Gelenken beruhenden Erkrankungen", "result": "eignen sich"}
    ]}
  ]
}
